Activity calls are given as the source filed them. The calls are words filed in the database; no cut-off is given here.

Our source for the inhibition and AUC(0-t) values is ChEMBL document CHEMBL4000195, “Design and synthesis of novel 7-aminosubstituted pyrido[2,3-b]pyrazines exhibiting anti-breast cancer activity” (Eur J Med Chem, 2017).

Data set [1] deals with Tyrosine-protein kinase Lck (Homo sapiens) (UniProt P06239). Kind of data set: Inhibition of human wild type partial length LCK (R207 to P509 residues) expressed in bacterial expression system at 10 uM by KinomeScan method relative to control.
Data set [2] deals with Tyrosine-protein kinase TXK (Homo sapiens) (UniProt P42681). Briefly: Inhibition of human wild type partial length TXK (L238 to W527 residues) expressed in bacterial expression system at 10 uM by KinomeScan method relative to control.
In the next data set the test system is Mus musculus. Briefly: In vivo inhibition of Akt phosphorylation at ser-473 residue in NOD/SCID mouse tumor xenografted with HER2-amplified human HCC1954 cells at 10 mg/kg, ip administered once daily for 18 days measured after 1 hr last dose by […]. In kind it is functional, organism-based. (Xenograft models place foreign cells or tissue in a host animal.)

A short description of data set [3]: AUC (0 to 24 hrs) in NOD/SCID mouse at 10 mg/kg, ip administered twice by LC-MS/MS method. In kind it is ADME, organism-based. Also noted: time < 24 hr, dose 10 mg/kg, route intraperitoneal. As to conditions: in vivo.

Chain of Tyrosine-protein kinase TXK (Homo sapiens) (P42681 whole entry, the tested form may be a part): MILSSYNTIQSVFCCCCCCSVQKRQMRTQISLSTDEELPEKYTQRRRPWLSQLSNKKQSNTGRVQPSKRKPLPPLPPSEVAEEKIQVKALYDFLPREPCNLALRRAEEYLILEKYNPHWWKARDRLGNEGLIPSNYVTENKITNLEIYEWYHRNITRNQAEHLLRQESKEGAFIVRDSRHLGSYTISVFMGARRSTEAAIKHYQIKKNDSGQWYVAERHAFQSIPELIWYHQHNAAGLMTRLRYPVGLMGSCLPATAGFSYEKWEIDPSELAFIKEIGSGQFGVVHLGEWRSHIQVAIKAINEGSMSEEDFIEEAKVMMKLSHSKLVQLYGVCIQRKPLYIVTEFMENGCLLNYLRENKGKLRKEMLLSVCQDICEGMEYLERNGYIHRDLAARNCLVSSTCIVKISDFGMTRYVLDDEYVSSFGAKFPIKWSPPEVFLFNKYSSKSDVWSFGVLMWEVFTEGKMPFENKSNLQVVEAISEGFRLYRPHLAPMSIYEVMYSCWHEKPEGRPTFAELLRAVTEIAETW
Chain of Tyrosine-protein kinase Lck (Homo sapiens) (P06239 2-509 limits assumed): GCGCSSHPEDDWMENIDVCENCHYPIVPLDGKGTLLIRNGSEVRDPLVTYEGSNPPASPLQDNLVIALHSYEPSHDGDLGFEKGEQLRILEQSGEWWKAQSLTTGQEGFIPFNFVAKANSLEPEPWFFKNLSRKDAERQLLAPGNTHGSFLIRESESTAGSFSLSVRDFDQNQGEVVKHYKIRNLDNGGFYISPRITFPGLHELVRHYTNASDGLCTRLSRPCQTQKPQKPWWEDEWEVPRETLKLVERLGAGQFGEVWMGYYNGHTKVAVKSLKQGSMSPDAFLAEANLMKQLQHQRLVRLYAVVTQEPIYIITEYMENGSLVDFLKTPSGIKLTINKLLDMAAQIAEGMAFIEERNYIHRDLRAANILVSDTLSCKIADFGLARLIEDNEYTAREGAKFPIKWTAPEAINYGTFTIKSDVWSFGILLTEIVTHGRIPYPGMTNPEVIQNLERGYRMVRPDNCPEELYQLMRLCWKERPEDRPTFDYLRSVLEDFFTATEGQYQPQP

Broadly, the inhibition is the percentage by which the read-out fell short of the control. As usually defined, the AUC(0-t) is the area under the concentration-time curve up to a stated or last time point. Read a high AUC(0-t) as more exposure. With `Cc1nc2nc(Sc3ccccc3)cnc2cc1NC(=O)Nc1ccccc1`, the inhibition in data set [1] was 2%; in data set [2], 8%. Also, in the data set on Mus musculus, the inhibition result was “Active”. Moreover, in data set [3], the AUC(0-t) at 24 h turned out to be 70.8 µM·h.
